Assay results from US8247211B2, “Glycopeptide antibiotics” (American Cyanamid Company, priority 2001, dated 2012).
Converted amounts (≈) assume the structure as drawn.

What was measured:
[1] = test system: Staphylococcus aureus-SMITH (GC 4543); assay: Acute lethal infection in mice (ED50); type: in vivo; details: female CD-1 mice, intraperitoneal challenge, intravenous dose 30 min. after infection, 7 day survival ratios
Procedure, shortened: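 IP bacterial challenge, female CD-1 mice; inoculum lethal to untreated controls in 24-48 hr. IV dosing in saline or 5% dextrose 30 min post-infection, 5 mice/dose. ED50 from 7-day survival, 3 tests pooled.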

[2] = test system: Escherichia coli; assay: In vitro antibacterial evaluation: minimum inhibitory concentration (MIC), broth dilution method; type: cell-based; details: 18 hours at 35° C.
Procedure, shortened: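 Inoculum: 5×10^5 CFU/mL. Range: 64-0.06 μg/mL. Medium: Muller-Hinton II […]; NCCLS M7-A2 broth dilution. Endpoint: lowest concentration inhibiting growth. Strains include methicillin-, penicillin- and/or vancomycin-resistant clinical isolates.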

[3] = test system: Staphylococcus sp.; assay: as above; type: cell-based; details: 18 hours at 35° C.
Procedure, shortened: (§1)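 Broth dilution per NCCLS M7-A2 in Muller-Hinton II […], inoculum 5×10^5 CFU/mL, antibiotic tested over 64-0.06 μg/mL. MIC is taken as the lowest concentration that inhibits growth. Panel includes recent clinical isolates resistant to methicillin, penicillin and/or vancomycin.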

[4] = test system: Enterococcus sp.; assay: as above; type: cell-based; details: 18 hours at 35° C.
Procedure, shortened: as §1

[5] = test system: Streptococcus sp.; assay: as above; type: cell-based; details: 18 hours at 35° C.
Procedure, shortened: as §1

[6] = broth dilution, inoculum 5×10^5 CFU/mL

CC(c1ccccc1)C1NC(=O)CNC(=O)C(CO)NC(=O)C(C(O)C2CNC(=N)N2C2OC(CO)C(O)C(O)C2O)NC(=O)C(C(O)C2CNC(=N)N2)NC(=O)C(Cc2ccc(OC3OC(CO)C(OC4OC(CO)C(OCc5ccc(OCc6ccccc6)cc5)C(O)C4O)C(O)C3O)cc2)NC1=O (stereo not drawn) [Example 231a, Cyclo[glycyl-β-methylphenylalanyl-O-[4-O-[4-O-[4-(phenylmethoxy)benzyl]hexopyranosyl]-hexopyranosyl]tyrosyl-3-(2-iminoimidazolidin-4-yl)seryl-3-(3-hexopyranosyl-2-iminoimidazolidin-4-yl)serylseryl]]
median effective dose (ED50), Staphylococcus aureus-SMITH (GC 4543) [1]: 0.06 mg/kg | MIC Escherichia coli (GC 4559) ([2]; Escherichia coli (GC 4559)): 32 µg/mL (≈ 21.5 µM) | MIC Escherichia coli (GC 4560) ([2]; Escherichia coli (GC 4560)): 0.5 to 2 µg/mL | MIC Coagulase Negative Staphylococcus (GC 4547) ([3]; Coagulase Negative Staphylococcus (GC 4547)): 1 µg/mL (≈ 0.67 µM) | MIC Coagulase Negative Staphylococcus (GC 4551) ([3]; Coagulase Negative Staphylococcus (GC 4551)): 0.5 µg/mL (≈ 0.335 µM) | MIC Coagulase Negative Staphylococcus (GC 6257) ([3]; Coagulase Negative Staphylococcus (GC 6257)): 0.5 µg/mL (≈ 0.335 µM) | MIC Staphylococcus aureus (ATCC 29213) ([3]; Staphylococcus aureus (ATCC 29213)): 1 to 2 µg/mL | MIC Staphylococcus aureus (GC 1131) ([3]; Staphylococcus aureus (GC 1131)): 1 to 2 µg/mL | MIC Staphylococcus aureus (GC 3051) ([3]; Staphylococcus aureus (GC 3051)): 1 µg/mL (≈ 0.67 µM) | MIC Staphylococcus aureus (GC 3053) ([3]; Staphylococcus aureus (GC 3053)): 1 to 2 µg/mL | MIC Staphylococcus aureus (GC 4541) ([3]; Staphylococcus aureus (GC 4541)): 1 to 2 µg/mL | MIC Staphylococcus aureus (GC 4542) ([3]; Staphylococcus aureus (GC 4542)): 0.5 to 1 µg/mL | MIC Staphylococcus aureus (GC 4544) ([3]; Staphylococcus aureus (GC 4544)): 2 to 4 µg/mL | MIC Staphylococcus aureus (GC 4545) ([3]; Staphylococcus aureus (GC 4545)): 1 to 2 µg/mL | MIC Staphylococcus aureus-SMITH (GC 4543) ([3]; Staphylococcus aureus-SMITH (GC 4543)): 1 µg/mL (≈ 0.67 µM) | MIC Staphylococcus haemolyticus (GC 4546) ([3]; Staphylococcus haemolyticus (GC 4546)): 1 µg/mL (≈ 0.67 µM) | MIC Enterococcus avium (GC 4558) ([4]; Enterococcus avium (GC 4558)): 2 µg/mL (≈ 1.34 µM) | MIC Enterococcus faecalis (ATCC 29212) ([4]; Enterococcus faecalis (ATCC 29212)): 2 µg/mL (≈ 1.34 µM) | MIC Enterococcus faecalis (GC 2242) ([4]; Enterococcus faecalis (GC 2242)): 2 to 4 µg/mL | MIC Enterococcus faecalis (GC 2691) ([4]; Enterococcus faecalis (GC 2691)): 2 µg/mL (≈ 1.34 µM) | MIC Enterococcus faecalis (GC 3059) ([4]; Enterococcus faecalis (GC 3059)): 1 to 2 µg/mL | MIC Enterococcus faecalis (GC 4552) ([4]; Enterococcus faecalis (GC 4552)): 4 µg/mL (≈ 2.68 µM) | MIC Enterococcus faecalis (GC 4553) ([4]; Enterococcus faecalis (GC 4553)): 4 µg/mL (≈ 2.68 µM) | MIC Enterococcus faecalis (GC 4554) ([4]; Enterococcus faecalis (GC 4554)): 4 µg/mL (≈ 2.68 µM) | MIC Enterococcus faecalis (GC 6189) ([4]; Enterococcus faecalis (GC 6189)): 1 to 2 µg/mL | MIC Enterococcus faecium (GC 2243) ([4]; Enterococcus faecium (GC 2243)): 2 µg/mL (≈ 1.34 µM) | MIC Enterococcus faecium (GC 4556) ([4]; Enterococcus faecium (GC 4556)): 2 to 4 µg/mL | MIC Enterococcus faecium (GC 4557) ([4]; Enterococcus faecium (GC 4557)): 2 µg/mL (≈ 1.34 µM) | MIC Enterococcus avium (GC 4558) [4, 6]: 2 µg/mL (≈ 1.34 µM) | MIC Enterococcus faecalis (ATCC 29212) [4, 6]: 2 µg/mL (≈ 1.34 µM) | MIC Enterococcus faecalis (GC 2242) [4, 6]: 2 to 4 µg/mL | MIC Enterococcus faecalis (GC 2691) [4, 6]: 2 µg/mL (≈ 1.34 µM) | MIC Enterococcus faecalis (GC 3059) [4, 6]: 1 to 2 µg/mL | MIC Enterococcus faecalis (GC 4552) [4, 6]: 4 µg/mL (≈ 2.68 µM) | MIC Enterococcus faecalis (GC 4553) [4, 6]: 4 µg/mL (≈ 2.68 µM) | MIC Enterococcus faecalis (GC 4554) [4, 6]: 4 µg/mL (≈ 2.68 µM) | MIC Enterococcus faecalis (GC 6189) [4, 6]: 1 to 2 µg/mL | MIC Enterococcus faecium (GC 2243) [4, 6]: 2 µg/mL (≈ 1.34 µM) | MIC Enterococcus faecium (GC 4556) [4, 6]: 2 to 4 µg/mL | MIC Enterococcus faecium (GC 4557) [4, 6]: 2 µg/mL (≈ 1.34 µM) | MIC Streptococcus agalactiae (GC 4564) ([5]; Streptococcus agalactiae (GC 4564)): <0.06 µg/mL | MIC Streptococcus pneumoniae (ATCC 6301) ([5]; Streptococcus pneumoniae (ATCC 6301)): <0.06 µg/mL | MIC Streptococcus pneumoniae (GC 1894) ([5]; Streptococcus pneumoniae (GC 1894)): <0.06 µg/mL | MIC Streptococcus pneumoniae (GC 4565) ([5]; Streptococcus pneumoniae (GC 4565)): <0.06 µg/mL | MIC Streptococcus pyogenes (GC 4563) ([5]; Streptococcus pyogenes (GC 4563)): <0.06 µg/mL | MIC Streptococcus agalactiae (GC 4564) [5, 6]: <0.06 µg/mL | MIC Streptococcus pneumoniae (ATCC 6301) [5, 6]: <0.06 µg/mL | MIC Streptococcus pneumoniae (GC 1894) [5, 6]: <0.06 µg/mL | MIC Streptococcus pneumoniae (GC 4565) [5, 6]: <0.06 µg/mL | MIC Streptococcus pyogenes (GC 4563) [5, 6]: <0.06 µg/mL
